Measured values published in PubChem BioAssay AID1918995 (Molecular Pharmacology Branch, DTP, NCI, 2023).

System: 324938-238-R-J1-PDC complex spheroid growth, % test/control
Test: Anticancer human tumor 324938-238-R-J1-PDC patient-derived bladder carcinoma cell line growth inhibition [AhR]
Settings: for IC50: curve of first compound; for viability, T/C: stronger effect = lower value
Source text: Multicellular complex tumor spheroid response to aryl hydrocarbon receptor antagonists in combination with a variety of drugs and investigational agents in selected tumor cell lines
The current study was undertaken to assess response to aryl hydrocarbon receptor antagonists in combination with standard-of-care drugs and investigational agents in solid tumor complex spheroid models. Complex spheroids include a stromal component modeled by human endothelial cells (HUVEC) and fibroblasts modeled by human mesenchymal stem cells (MSCs). The concentration ranges selected for each drug and investigational agent were based upon clinically achievable concentrations if the clinical Cmax of the agent was known.
Compounds. The drugs and investigational agents: BAY 2416964 (NSC825713), GNF351 (NSC835774), CH-223191 (NSC835775), CPI-455 (NSC825282), aza-TdCyd (NSC777586), decitabine (NSC127716), belinostat (NSC758774), entinostat (NSC756642), pevonedistat (NSC761192), tazemetostat (NSC777109), talazoparib (NSC765396), olaparib (NSC753686), selinexor (NSC780203), nedisertib (M3814, NSC802822), bortezomib (NSC756655), venetoclax (NSC766270), doxorubicin (NSC123127), elimusertib (BAY189344, NSC800525), ceralasertib (AZD6738, NSC777638), TAK-243 (NSC785004), alisertib (NSC759677), etoposide (NSC141540), topotecan (NSC609699), eribulin (NSC707389), gemcitabine (NSC613327), carboplatin (NSC241240), cisplatin (NSC119875), and SN-38 (NSC673596) were obtained from the National Cancer Institute (NCI) Developmental Therapeutics Program Chemical Repository (32). The FDA-approved anticancer drug set is available from the Developmental Therapeutics Program at https://dtp.cancer.gov/organization/dscb/obtaining/available plates.htm. […] The stock solutions were prepared in dimethyl sulfoxide (DMSO, Sigma-Aldrich, St. Louis, MO, cat. D2650), except for the platinum compounds which were prepared in saline (Quality Biological, Gaithersburg, MD, cat. 114-055-101), at 800-fold the tested concentration and stored at -70 degrees C prior to their use. All drugs and investigational agents were tested over a range starting from a high concentration at or near the clinical Cmax and decreasing in half-log increments. If the clinical Cmax for an agent had not been determined, the highest concentration tested was 10 microM (Table 1).
Cell Culture. All cells were maintained in an incubator at 37 degrees C and 5% CO2 with 95% humidity. The PDC lines were cultured according to standard operating procedures established by the NCI PDMR (https://pdmr.cancer.gov). Briefly, all PDCs were thawed and cultured in Matrigel-coated flasks prepared with a working solution of 1X Ham's F-12 nutrient mix, without supplementation (Invitrogen, Waltham, MA, cat. 11765054), 100 U/mL penicillin-streptomycin (Invitrogen, cat. 15140122), and 2.5% Matrigel (Corning Inc., Corning, NY, cat. 354248) for the first three passages. All PDCs were cultured in complete DMEM/F-12 media containing advanced DMEM/F-12 (Invitrogen, cat. 12634028), 4.9% defined fetal bovine serum, heat inactivated (HyClone Laboratories Inc., Logan, UT, cat. SH30070.03HI), 389 ng/mL hydrocortisone (Sigma-Aldrich, cat. H4001), 9.7 ng/mL human EGF recombinant protein (Invitrogen, cat. PHG0313), 23.4 microg/mL adenine (Sigma-Aldrich, cat. A2786), 97.3 U/mL penicillin-streptomycin (Invitrogen, cat. 15140122), 1.9 mM L-glutamine (Invitrogen, cat. 25030081), and 9.7 microM Y-27632 dihydrochloride (Tocris Bioscience, Bristol, United Kingdom, cat. 1254). The PDCs were cultured in complete DMEM/F12 media without 10 microM Y-27632 dihydrochloride for at least two passages prior to the screen. The established cell lines NCI-H1341 and […] were cultured in DMEM/F-12, HEPES (Invitrogen, cat. 11330032), 5% defined fetal bovine serum (HyClone Laboratories Inc., cat. SH30070.03), ITS premix universal culture supplement [insulin (5 microg/mL), transferrin (5 microg/mL), and selenious acid (5 ng/mL)] […]

[1] = second compound 0.1 µM, first compound 0.00316 µM
[2] = second compound 0.1 µM, first compound 0.01 µM
[3] = second compound 0.1 µM, first compound 0.0316 µM
[4] = second compound 0.1 µM, first compound 0.1 µM
[5] = second compound 0.316 µM, first compound 0.00316 µM
[6] = second compound 0.316 µM, first compound 0.01 µM
[7] = second compound 0.316 µM, first compound 0.0316 µM
[8] = second compound 0.316 µM, first compound 0.1 µM
[9] = second compound 1 µM, first compound 0.00316 µM
[10] = second compound 1 µM, first compound 0.01 µM
[11] = second compound 1 µM, first compound 0.0316 µM
[12] = second compound 1 µM, first compound 0.1 µM
[13] = second compound 3.16 µM, first compound 0.00316 µM
[14] = second compound 3.16 µM, first compound 0.01 µM
[15] = second compound 3.16 µM, first compound 0.0316 µM
[16] = second compound 3.16 µM, first compound 0.1 µM
[17] = second compound 10 µM, first compound 0.00316 µM
[18] = second compound 10 µM, first compound 0.01 µM
[19] = second compound 10 µM, first compound 0.0316 µM
[20] = second compound 10 µM, first compound 0.1 µM
[21] = second compound 0.1 µM, first compound 0.316 µM
[22] = second compound 0.1 µM, first compound 1 µM
[23] = second compound 0.1 µM, first compound 3.16 µM
[24] = second compound 0.1 µM, first compound 10 µM
[25] = second compound 0.316 µM, first compound 0.316 µM
[26] = second compound 0.316 µM, first compound 1 µM
[27] = second compound 0.316 µM, first compound 3.16 µM
[28] = second compound 0.316 µM, first compound 10 µM
[29] = second compound 1 µM, first compound 0.316 µM
[30] = second compound 1 µM, first compound 1 µM
[31] = second compound 1 µM, first compound 3.16 µM
[32] = second compound 1 µM, first compound 10 µM
[33] = second compound 3.16 µM, first compound 0.316 µM
[34] = second compound 3.16 µM, first compound 1 µM
[35] = second compound 3.16 µM, first compound 3.16 µM
[36] = second compound 3.16 µM, first compound 10 µM
[37] = second compound 10 µM, first compound 0.316 µM
[38] = second compound 10 µM, first compound 1 µM
[39] = second compound 10 µM, first compound 3.16 µM
[40] = second compound 10 µM, first compound 10 µM
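Note: spheroids exposed to agents for seven days before viability read.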

SMILES | IC50 (second compound 0.1 µM) [nM] | IC50 (second compound 0.316 µM) [nM] | IC50 (second compound 1 µM) [nM] | IC50 (second compound 3.16 µM) [nM] | IC50 (second compound 10 µM) [nM] | viability, T/C [3] [%] | viability, T/C [4] [%] | viability, T/C [7] [%] | viability, T/C [8] [%] | viability, T/C [11] [%] | viability, T/C [12] [%] | viability, T/C [15] [%] | viability, T/C [16] [%] | viability, T/C [19] [%] | viability, T/C [20] [%] | viability, T/C [21] [%] | viability, T/C [22] [%] | viability, T/C [25] [%] | viability, T/C [26] [%] | viability, T/C [29] [%] | also measured
CC[C@@]1(O)C(=O)OCc2c1cc1n(c2=O)Cc2cc3c(CN(C)C)c(O)ccc3nc2-1 + CC(CO)NC(=O)c1cc(-c2ccc(Cl)cc2)nn(-c2cnn(C)c2)c1=O | 27.7 | 20.4 | 21.9 | 14.2 | 16.8 | 44.6 | 16.7 | 36.5 | 18.1 | 39.4 | 17.6 | 32.4 | 21 | 40.4 | 22.6 | – | – | – | – | – | viability, T/C (second compound 0.1 µM, first compound 0.000316 µM): 106%; viability, T/C (second compound 0.1 µM, first compound 0.001 µM): 103%; viability, T/C [1]: 89.7%; viability, T/C [2]: 80.2%; viability, T/C (second compound 0.316 µM, first compound 0.000316 µM): 102%; viability, T/C (second compound 0.316 µM, first compound 0.001 µM): 106%; viability, T/C [5]: 100%; viability, T/C [6]: 72.6%; viability, T/C (second compound 1 µM, first compound 0.000316 µM): 87.4%; viability, T/C (second compound 1 µM, first compound 0.001 µM): 97.9%; viability, T/C [9]: 89.6%; viability, T/C [10]: 73%; viability, T/C (second compound 3.16 µM, first compound 0.000316 µM): 74%; viability, T/C (second compound 3.16 µM, first compound 0.001 µM): 85.4%; viability, T/C [13]: 76.3%; viability, T/C [14]: 57.2%; viability, T/C (second compound 10 µM, first compound 0.000316 µM): 69.4%; viability, T/C (second compound 10 µM, first compound 0.001 µM): 69.7%; viability, T/C [17]: 61.4%; viability, T/C [18]: 59.6%
COc1cc(C2c3cc4c(cc3C(OC3OC5COC(C)OC5C(O)C3O)C3COC(=O)C23)OCO4)cc(OC)c1O (stereo not given) + CC(CO)NC(=O)c1cc(-c2ccc(Cl)cc2)nn(-c2cnn(C)c2)c1=O | 351 | 427 | 441 | 243 | 171 | 92.8 | 96 | 101 | 90.3 | 95.6 | 94.9 | 70.6 | 73.9 | 66.7 | 57 | 52.4 | 30.1 | 56.9 | 30.3 | 58.2 | viability, T/C [23]: 26.8%; viability, T/C [24]: 21.3%; viability, T/C [27]: 28.6%; viability, T/C [28]: 23.4%; viability, T/C [30]: 30.2%; viability, T/C [31]: 31.5%; viability, T/C [32]: 21.7%; viability, T/C [33]: 43.4%; viability, T/C [34]: 30.8%; viability, T/C [35]: 28.8%; viability, T/C [36]: 22.7%; viability, T/C [37]: 41.2%; viability, T/C [38]: 36.5%; viability, T/C [39]: 32.7%; viability, T/C [40]: 23.9%
COc1cccc2c1C(=O)c1c(O)c3c(c(O)c1C2=O)CC(O)(C(=O)CO)CC3OC1CC(N)C(O)C(C)O1 (stereo not given) + CC(CO)NC(=O)c1cc(-c2ccc(Cl)cc2)nn(-c2cnn(C)c2)c1=O | < 31.6 | < 31.6 | < 31.6 | < 31.6 | < 31.6 | 33.5 | 29.2 | 34.6 | 28.6 | 32.9 | 30.9 | 31 | 36.1 | 39.8 | 35.4 | 17.7 | 2.6 | 16.8 | 3.87 | 15.5 | viability, T/C [23]: 0.09%; viability, T/C [24]: 0.19%; viability, T/C [27]: 0.08%; viability, T/C [28]: 0.19%; viability, T/C [30]: 1.51%; viability, T/C [31]: 0.09%; viability, T/C [32]: 0.19%; viability, T/C [33]: 19.6%; viability, T/C [34]: 1.04%; viability, T/C [35]: 0.09%; viability, T/C [36]: 0.68%; viability, T/C [37]: 16.8%; viability, T/C [38]: 0.25%; viability, T/C [39]: 0.24%; viability, T/C [40]: 0.29%
Nc1ncn(C2CC(O)C(CO)O2)c(=O)n1 (stereo not given) + CC(CO)NC(=O)c1cc(-c2ccc(Cl)cc2)nn(-c2cnn(C)c2)c1=O | > 1000 | > 1000 | > 1000 | > 1000 | > 1000 | 93.4 | 73.4 | 97.5 | 82.9 | 82.8 | 72.2 | 64.1 | 60.4 | 65.8 | 55.9 | 81.7 | 72.3 | 80.2 | 64.8 | 68.3 | viability, T/C [1]: 98.5%; viability, T/C [2]: 97.5%; viability, T/C [5]: 98.4%; viability, T/C [6]: 102%; viability, T/C [9]: 85.9%; viability, T/C [10]: 91.3%; viability, T/C [30]: 61.5%; viability, T/C [13]: 72.4%; viability, T/C [14]: 72.5%; viability, T/C [33]: 64.4%; viability, T/C [34]: 57.6%; viability, T/C [17]: 61.4%; viability, T/C [18]: 67.9%; viability, T/C [37]: 58.3%; viability, T/C [38]: 57.8%
